Reference: patent US20260250318A1, “COMPOSITIONS AND METHODS FOR CROSSING THE BLOOD BRAIN BARRIER” (VOYAGER THERAPEUTICS, INC., priority 2022, published 2026)

Legend:
[1] = system: brains, heart, liver, muscle, and DRG of the NHPs; assay: Maturation of TTM-001 and TTM-002 capsids, NGS enrichment in NHP tissues; format: in vivo; details: relative to AAV9 control
How it was run: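 Variants carry mutations within and flanking the loop IV peptide insert: positions 450–466 were triplet-randomized, while positions 449–466 received low-frequency point mutations. The combined pool went into two NHPs, and each peptide was scored by NGS enrichment ratio against AAV9.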

brain = assay: Matured TTM-001 and TTM-002 variants, NGS enrichment in mouse brain; format: in vivo, mice; details: relative to AAV9 control
[2] = NGS fold-enrichment of RNA, NHP brain
[3] = NGS fold-enrichment, NHP liver DNA
[4] = NGS fold-enrichment, NHP liver RNA
[5] = NGS fold-enrichment, NHP muscle
[6] = NGS fold-enrichment, mouse brain
[7] = NGS fold-enrichment of matured AAV capsid variants, NHP brain, RNA
[8] = NGS fold-enrichment, DRG of NHPs
[9] = NGS fold-enrichment, RNA, brain of NHPs
[10] = NGS fold-enrichment, heart of NHPs
[11] = NGS fold-enrichment, liver DNA of NHPs
[12] = NGS fold-enrichment, liver RNA of NHPs
[13] = NGS fold-enrichment, muscle of NHPs
[14] = NGS fold-enrichment, brain of mice

Row | Sequence | Fold Enrichment relative to AAV9, Brain (NHP) [1, 2] [fold] | Fold Enrichment relative to AAV9, DRG (NHP) ([1]; NGS fold-enrichment, NHP DRG) [fold] | Fold Enrichment relative to AAV9, Heart (NHP) ([1]; NGS fold-enrichment, NHP heart) [fold] | Fold Enrichment relative to AAV9, Liver DNA (NHP) [1, 3] [fold] | Fold Enrichment relative to AAV9, Liver RNA (NHP) [1, 4] [fold] | Fold Enrichment relative to AAV9, Muscle (NHP) [1, 5] [fold] | Fold Enrichment relative to AAV9, Brain (Mouse) (brain; [6]) [fold] | Fold Enrichment relative to AAV9, Brain (NHP) [1, 7] [fold] | Fold Enrichment relative to AAV9, DRG (NHP) ([1]; NHP DRG) [fold] | Fold Enrichment relative to AAV9, Heart (NHP) ([1]; NHP heart) [fold] | Fold Enrichment relative to AAV9, Liver DNA (NHP) ([1]; NHP liver, DNA) [fold] | Fold Enrichment relative to AAV9, Liver RNA (NHP) ([1]; NHP liver, RNA) [fold] | Fold Enrichment relative to AAV9, Muscle (NHP) ([1]; NHP muscle) [fold] | Fold Enrichment relative to AAV9, Brain (Mouse) (brain; mouse brain) [fold] | other results
1 | KAINGHDSPHKSAQSQQT | 95.204 | 0.146 | 0.310 | 0.058 | 0.699 | 0.000 | 14.595 |  |  |  |  |  |  |  | 
2 | KTVNGSGSPHSKAQDKQT |  |  |  |  |  |  |  | 51.580 | 0.428 | 0.000 | 0.063 | 0.041 | 0.069 | 69.225 | 
3 | KTSNGHDSPHKSGQNQPA | 75.834 | 0.000 | 0.056 | 0.000 | 0.000 | 0.000 | 8.501 |  |  |  |  |  |  |  | 
4 | KTINGSGSPHSKAQPPAT |  |  |  |  |  |  |  |  |  |  |  |  |  |  | Fold Enrichment relative to AAV9, DRG (NHP) [1, 8]: 0.048 fold; Fold Enrichment relative to AAV9, Brain (NHP) [1, 9]: 63.510 fold; Fold Enrichment relative to AAV9, Heart (NHP) [1, 10]: 0.030 fold; Fold Enrichment relative to AAV9, Liver DNA (NHP) [1, 11]: 0.302 fold; Fold Enrichment relative to AAV9, Liver RNA (NHP) [1, 12]: 0.126 fold; Fold Enrichment relative to AAV9, Muscle (NHP) [1, 13]: 0.031 fold; Fold Enrichment relative to AAV9, Brain (Mouse) (brain; [14]): 117.453 fold
5 | KTDVKSGSPHSKAQNQQT |  |  |  |  |  |  |  | 51.296 | 0.000 | 0.000 | 0.224 | 0.515 | 0.000 | 53.601 | 
6 | KTINGSGSPHSKAQRMNT |  |  |  |  |  |  |  | 50.686 | 0.000 | 108.747 | 0.264 | 0.943 | 0.019 | 97.975 | 
7 | KIINGRDSPHKSGQDQQT | 78.773 | 0.000 | 0.254 | 0.156 | 0.000 | 0.000 | 16.132 |  |  |  |  |  |  |  | 
8 | KTINGSGSPHSKNRDQQT |  |  |  |  |  |  |  | 51.830 | 0.000 | 0.008 | 0.138 | 0.480 | 0.000 | 100.300 | 
9 | KTINGSGSPHSKSQSQQI |  |  |  |  |  |  |  |  |  |  |  |  |  |  | Fold Enrichment relative to AAV9, DRG (NHP) [1, 8]: 0.000 fold; Fold Enrichment relative to AAV9, Brain (NHP) [1, 9]: 61.870 fold; Fold Enrichment relative to AAV9, Heart (NHP) [1, 10]: 0.000 fold; Fold Enrichment relative to AAV9, Liver DNA (NHP) [1, 11]: 0.175 fold; Fold Enrichment relative to AAV9, Liver RNA (NHP) [1, 12]: 0.200 fold; Fold Enrichment relative to AAV9, Muscle (NHP) [1, 13]: 0.000 fold; Fold Enrichment relative to AAV9, Brain (Mouse) (brain; [14]): 64.027 fold
10 | KSINGHDSPHKSGQYQHT | 88.195 | 0.000 | 0.099 | 0.149 | 0.000 | 0.000 | 14.485 |  |  |  |  |  |  |  | 
